EP2000140A1, “Use of derivatives of 3-oxo-2,3-dihydro-5H-thiazolo[3,2-a]pyrimidine or of 3-oxo-2,3-dihydro-5H-imidazolo[3,2-a]pyrimidine for the preparation of pharmaceutical compositions intended for the treatment of cancer” (INSTITUT NATIONAL DE LA SANTE ET DE LA RECHERCHE MEDICALE …, priority 2007, dated 2008)
Where a name gives a salt, the structure may show the parent alone. Read-outs that look alike come from different tables or passages of the source.

Columns and labels:
HeLa cells = assay: Clonogenic assay (cloning inhibition, colony counting after crystal violet staining); format: cell-based; details: 10 days incubation
Procedure: For cloning inhibition assays, HeLa cells were plated at 100 cells/well in 6-well tissue culture plates with 2.5 mL of medium/well. After 24 h growing at 37 °C in a humidified atmosphere of 5% CO2, the culture medium was replaced by control medium or medium containing inhibitors at increasing concentrations (up to 100 µM) and incubated for 10 days. Cells were then washed with […] phosphate-buffered saline and fixed in 10% formaldehyde for 30 minutes at room temperature. They were carefully rinsed with water, stained with 1 mL crystal violet (2 g in 100 mL ethanol, then 2 mL in 100 mL water) for 10 minutes and finally rinsed with water. The plating efficiency was determined by counting the colonies. The results are expressed as the means of two independent experiments with three determinations per tested concentration. For each compound, the IC50 was determined from a sigmoidal dose-response using GraphPad Prism (GraphPad Software, San Diego, CA).
The effects on cell proliferation were further investigated in a clonogenic assay on HeLa cells. HeLa cells were treated at day 1 with increasing concentration of drugs and then plated for an additional 10-day. After crystal violet staining and colony counting, dose-response curve were drawn and the IC50 values determined.

[1] = molecular target: T1, MBP-CDC25B3 recombinant enzyme (Homo sapiens, UniProt P30305); assay: In vitro enzymatic assay (fluorescein diphosphate as substrate); format: biochemical; details: recombinant fused MBP-CDC25B protein, fluorescein diphosphate 30 µM as substrate, concentration response up to 100 µM
T1 construct: made in house
T1 sequence (P30305 1-580): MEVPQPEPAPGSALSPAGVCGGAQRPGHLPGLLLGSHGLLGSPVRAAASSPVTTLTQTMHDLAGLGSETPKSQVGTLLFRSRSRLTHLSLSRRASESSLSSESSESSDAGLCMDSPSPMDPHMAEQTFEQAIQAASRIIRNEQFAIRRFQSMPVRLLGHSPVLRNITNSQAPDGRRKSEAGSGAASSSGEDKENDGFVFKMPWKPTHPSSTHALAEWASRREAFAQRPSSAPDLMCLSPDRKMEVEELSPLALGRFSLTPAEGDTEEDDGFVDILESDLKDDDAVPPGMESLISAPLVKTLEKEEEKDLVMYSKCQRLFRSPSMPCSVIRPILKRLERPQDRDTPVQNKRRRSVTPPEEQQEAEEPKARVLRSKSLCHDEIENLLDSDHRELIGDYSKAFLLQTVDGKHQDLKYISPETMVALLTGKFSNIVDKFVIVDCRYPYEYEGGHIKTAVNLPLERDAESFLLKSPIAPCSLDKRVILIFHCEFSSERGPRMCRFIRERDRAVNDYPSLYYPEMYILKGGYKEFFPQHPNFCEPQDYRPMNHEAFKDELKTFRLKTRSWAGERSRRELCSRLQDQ
Procedure: The activity of the MBP-CDC25B3 recombinant enzyme was monitored using fluorescein diphosphate as the substrate. The assay was performed in 96-well plates in a final volume of 200 µL. The maltose binding protein-CDC25B3 was kept in elution buffer [50mM phosphate pH 7.5, 300 mM NaCl, 500 mM imidazole, 10% glycerol]. It was diluted in assay buffer [30 mM Tris-HCl (pH 8.2), 75 mM NaCl, 0.67 mM EDTA, 0.033% BSA, 1 mM DTT]. The final concentration of CDC25B3 was 75 ng/well. Products were studied in a concentration response up to 100 µM. The reaction was initiated by addition of 30 µM of fluorescein diphosphate followed by immediate measure of fluorescein emission with a Fluoroskan Ascent (Lab Systems; excitation filter: 485 nm, emission filter: 530 nm). The results are expressed as the means of at least two independent experiments with three determinations per tested concentration and per experiment. For each compound, the drug concentration required for 50% inhibition (IC50) was determined from a sigmoidal dose-response curve using GraphPad Prism (GraphPad Software, San Diego, CA).
The compounds of formula (I) were evaluated for in vitro enzymatic activity inhibition on the recombinant fused MBP-CDC25B protein with fluorescein diphosphate as the substrate.

[2] = Homo sapiens, 240 h, read-out: IC50

Structure (SMILES)	IC50 (HeLa cells; mesylate)	IC50 [1]	IC50 (HeLa cells; Homo sapiens, HeLa, 240 h)	IC50 (HeLa cells; [2])
CCOC(=O)C1=C(C)N=c2sc(=Cc3ccc(O)cc3)c(=O)n2C1c1ccc2c(c1)OCO2 (centres unmarked) [(1a), ethyl 5-(benzo[1,3]dioxol-5-yl)-2-(4-hydroxybenzylidene)-7-methyl-3-oxo-2,3-dihydro-5H-thiazolo[3,2-a]pyrimidinium-6-carboxylate mesylate]	14.8 µM	6 µM		
COC(=O)C1=C(C)N=c2sc(=Cc3ccc(O)cc3)c(=O)n2C1c1ccc2c(c1)OCO2 (centres unmarked) [(12a), methyl 5-(benzo[1,3]dioxol-5-yl)-2-(4-hydroxybenzylidene)-7-methyl-3-oxo-2,3-dihydro-5H-thiazolo[3,2-a]pyrimidine-6-carboxylate]		9.2 µM		
CCOC(=O)C1=C(C)N=c2sc(=Cc3ccc(O)cc3)c(=O)n2C1c1ccc2c(c1)OCO2 (stereo not drawn) [Compound 1, ethyl 5-(benzo[1,3]dioxol-5-yl)-2-(4-hydroxybenzylidene)-7-methyl-3-oxo-2,3-dihydro-5H-thiazolo[3,2-α]pyrimidine-6-carboxylate]		13 µM	15.9 µM	
CCOC(=O)C1=C(C)N=c2sc(=Cc3cc(Br)c(O)c(Br)c3)c(=O)n2C1c1ccc2c(c1)OCO2 (centres unmarked) [Compound 12, ethyl 5-(benzo[1,3]dioxol-5-yl)-2-(3,5-dibromo-4-hydroxybenzylidene)-7-methyl-3-oxo-2,3-dihydro-5H-thiazolo[3,2-a]pyrimidine-6-carboxylate]		16.7 µM		9.75 µM
CCOC(=O)C1=C(C)N=c2sc(=Cc3ccc(OC(C)=O)c(OC(C)=O)c3)c(=O)n2C1c1ccc2c(c1)OCO2 (centres unmarked) [Compound (5a), ethyl 2-(3,4-diacetoxybenzylidene)-5-(benzo[1,3]dioxol-5-yl)-7-methyl-3-oxo-2,3-dihydro-5H-thiazolo[3,2-a]pyrimidine-6-carboxylate]		1.2 µM		1.8 µM
CCOC(=O)C1=C(C)N=c2sc(=Cc3ccc(OC(C)=O)c(OC(C)=O)c3)c(=O)n2C1c1ccc(OC)c(OC)c1 (centres unmarked) [Compound (5b), ethyl 2-(3,4-diacetoxybenzylidene)-5-(3,4-dimethoxyphenyl)-7-methyl-3-oxo-2,3-dihydro-5H-thiazolo[3,2-a]pyrimidine-6-carboxylate]		2.9 µM		3.5 µM
